In PubChem BioAssay (NCI):
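Where inhibition never reached the appropriate level, the endpoint shown equals the highest concentration tested. Otherwise, values were interpolated linearly from a five-concentration, 48-hour dose response in 96-well plates. At the GI50, growth is halved. The concentration for full growth arrest is given as TGI.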

Columns and labels:
Assay in all cases: NCI tumour cell line growth inhibition, 48 h
NCI-H226 lung = tested on: NCI-H226 lung
NCI-H23 lung = tested on: NCI-H23 lung
NCI-H460 lung = tested on: NCI-H460 lung
NCI-H522 lung = tested on: NCI-H522 lung
NCI/ADR-RES ovarian = tested on: NCI/ADR-RES ovarian
OVCAR-3 ovarian = tested on: OVCAR-3 ovarian
OVCAR-4 ovarian = tested on: OVCAR-4 ovarian
OVCAR-5 ovarian = tested on: OVCAR-5 ovarian
OVCAR-8 ovarian = tested on: OVCAR-8 ovarian
PC-3 prostate = tested on: PC-3 prostate
RPMI-8226 leukemia = tested on: RPMI-8226 leukemia
RXF 393 renal = tested on: RXF 393 renal
SF-268 CNS = tested on: SF-268 CNS
SF-295 CNS = tested on: SF-295 CNS
SF-539 CNS = tested on: SF-539 CNS
SK-MEL-2 melanoma = tested on: SK-MEL-2 melanoma
SK-MEL-28 melanoma = tested on: SK-MEL-28 melanoma
SK-MEL-5 melanoma = tested on: SK-MEL-5 melanoma
SK-OV-3 ovarian = tested on: SK-OV-3 ovarian
SN12C renal = tested on: SN12C renal
SNB-19 CNS = tested on: SNB-19 CNS
SNB-75 CNS = tested on: SNB-75 CNS
SR leukemia = tested on: SR leukemia
SW-620 colon = tested on: SW-620 colon
T-47D breast = tested on: T-47D breast
TK-10 renal = tested on: TK-10 renal
U251 CNS = tested on: U251 CNS
UACC-257 melanoma = tested on: UACC-257 melanoma
UACC-62 melanoma = tested on: UACC-62 melanoma
UO-31 renal = tested on: UO-31 renal

O=C(Nc1ccc(-c2ccc3c(c2)NC(=O)/C3=C\c2ccc[nH]2)cc1)Nc1ccc(Cl)c(C(F)(F)F)c1
TGI (NCI-H226 lung): 11.4 µM
GI50 (NCI-H23 lung): 1.12 µM
TGI (NCI-H23 lung): 3.12 µM
GI50 (NCI-H460 lung): 0.489 µM
TGI (NCI-H460 lung): 1.82 µM
GI50 (NCI-H522 lung): 1.54 µM
TGI (NCI-H522 lung): 3.67 µM
GI50 (NCI/ADR-RES ovarian): 2.93 µM
TGI (NCI/ADR-RES ovarian): 11.1 µM
GI50 (OVCAR-3 ovarian): 1.57 µM
TGI (OVCAR-3 ovarian): 3.62 µM
GI50 (OVCAR-4 ovarian): 1.24 µM
TGI (OVCAR-4 ovarian): 8.4 µM
GI50 (OVCAR-5 ovarian): 2.18 µM
TGI (OVCAR-5 ovarian): 10.5 µM
GI50 (OVCAR-8 ovarian): 2.17 µM
TGI (OVCAR-8 ovarian): 5.38 µM
GI50 (PC-3 prostate): 1.83 µM
TGI (PC-3 prostate): 6.69 µM
GI50 (RPMI-8226 leukemia): 1.56 µM
TGI (RPMI-8226 leukemia): 4.98 µM
GI50 (RXF 393 renal): 2.25 µM
TGI (RXF 393 renal): 5.34 µM
GI50 (SF-268 CNS): 1.94 µM
TGI (SF-268 CNS): 5.09 µM
GI50 (SF-295 CNS): 2.84 µM
TGI (SF-295 CNS): 10.2 µM
GI50 (SF-539 CNS): 1.82 µM
TGI (SF-539 CNS): 6.59 µM
GI50 (SK-MEL-2 melanoma): 3.48 µM
TGI (SK-MEL-2 melanoma): 14.2 µM
GI50 (SK-MEL-28 melanoma): 3.04 µM
TGI (SK-MEL-28 melanoma): 10.2 µM
GI50 (SK-MEL-5 melanoma): 5.56 µM
TGI (SK-MEL-5 melanoma): 18.8 µM
GI50 (SK-OV-3 ovarian): 2.56 µM
TGI (SK-OV-3 ovarian): 13.9 µM
GI50 (SN12C renal): 1.71 µM
TGI (SN12C renal): 3.53 µM
GI50 (SNB-19 CNS): 3.6 µM
TGI (SNB-19 CNS): 15.5 µM
GI50 (SNB-75 CNS): 2.64 µM
TGI (SNB-75 CNS): 17.4 µM
GI50 (SR leukemia): 2.13 µM
TGI (SR leukemia): 7.01 µM
GI50 (SW-620 colon): 1.88 µM
TGI (SW-620 colon): 3.89 µM
GI50 (T-47D breast): 0.29 µM
TGI (T-47D breast): 4.12 µM
GI50 (TK-10 renal): 1.43 µM
TGI (TK-10 renal): 7.55 µM
GI50 (U251 CNS): 1.64 µM
TGI (U251 CNS): 3.42 µM
GI50 (UACC-257 melanoma): 2.77 µM
TGI (UACC-257 melanoma): 9.01 µM
GI50 (UACC-62 melanoma): 2.62 µM
TGI (UACC-62 melanoma): 12.9 µM
GI50 (UO-31 renal): 1.75 µM
TGI (UO-31 renal): 14.3 µM
